According to article PMC9738107, “Targeting of the ELR+CXCL/CXCR1/2 Pathway Is a Relevant Strategy for the Treatment of Paediatric Medulloblastomas” (Cells, 2022):

Tests used:
[1] = tested on: Daoy cells; test: Clonogenic assay; format: cell-based, human; conditions: 1 µM
Description: (§1) Figure 4 C29 reduces proliferation, migration, and invasion of naïve MB cells. (A) Proliferation of Daoy, ONS-76, HD-MB03, and D341Med wild-type cells after treatment with 1 μM C29 or the control (DMSO), n = 3. (B) Clonogenic assay on Daoy (n = 4), ONS-76 (n = 3) and HD -MB03 (n = 5) cells after treatment with control (DMSO) or C29 (1 μM or 2.5 μM). Scale = 500 μm. (C) Cell migration through the Boyden chamber of Daoy and ONS-76 cells specifically attracted by 200 ng/mL CXCL8. Results are expressed as percentage of control (DMSO) (n = 3). Scale = 1000 μm. (D) Spheroid invasion using 3D culture cell assays on Daoy (n = 4) and ONS-76 cells (n = 3) treated with control (DMSO) or C29 at a concentration of 1 μM on day 0, 1, and 2. Results are expressed as percentage of day 0, n = 4. Scale = 500 μm. Statistics were performed using Student t-test for 2 comparisons only or ANOVA test for multiple comparisons. * p < 0.05, ** p < 0.01, *** p < 0.001. […]
(§2) each month by using PlasmoTest Kit (#10L07‐MM, InvivoGen, Toulouse, France). Daoy and ONS‐76 belong to the Shh genetic subgroup, D341‐Med and HD‐MB03 to group 3. […]
(§3) 150 Daoy/DR1/DR2/ ONS ‐ 76 and 300 HD ‐ MB03/HR1/HR2 cells were seeded in trip‐ licate in 6‐well plates in the presence or absence of treatment (1 or 2∙5μM […] or DMSO as control). On day 9 (Daoy/ONS‐76) and day 11 (HD ‐MB03), cells were fixed in ice‐cold absolute ethanol (Sigma) for 20 min, washed with PBS and then stained with Giemsa 50% for 30 min. The number of clones was quantified using ImageJ software. We only considered clones containing more than 50 cells. […]
Violet. […]
(§4) 5000 cells were plated in 48 multi‐well plates coated with agarose 0∙8%. After two days, spheroids were mixed with 100μl of matrigel mix (200μl of matrigel (Corning Mat‐ rigel Matrix, Fontenay‐sous‐Bois, France), 100 μl collagen I (8 mg/ml, Corning), 80 μl HEPES 1M and 320μl respective medium) in 12 multi‐well plates. […]

[2] = tested on: HD-MB03 cells; test: Clonogenic assay; format: cell-based, human; conditions: HD-MB03, 1 µM
Description: as §1, §2, §3
Violet. […]
as §4

[3] = tested on: ONS-76 cells; test: Clonogenic assay; format: cell-based, human
Description: as §1, §2, §3
Violet. […]
as §4

[4] = tested on: Daoy cells; test: CXCL8-induced migration in Boyden chamber; format: cell-based, human; conditions: 1 µM, 200 ng/mL CXCL8
Description: as §1, §2
(§5) (1, 2∙5, 5μM) for 48 hours. […]
(§6) Data were presented with the percentage of cell death after subtracting the percentage of untreated and unlabelled dead cells.
(§7) Migration in Boyden chambers
(§8) The cells were deprived of serum overnight. […] Cells were counted using ImageJ software (NIH). […]

[5] = tested on: ONS-76 cells; test: CXCL8-induced migration in Boyden chamber; format: cell-based, human; conditions: ONS-76, 1 µM, 200 ng/mL CXCL8
Description: as §1, §2, §5, §6, §7, §8

[6] = tested on: uveal melanoma cells (Mel202); design: method as in PMID 24676409; conditions: Mel202, low expression of CXCR1/2; cited from earlier work

With `O=C(Nc1cccc(Cl)c1)Nc1nc2ccc([N+](=O)[O-])cc2s1` [C29, 1-(3-chlorophenyl)-3-(6-nitrobenzo[d]thiazol-2-yl) urea] the Clone formation [1] was “inhibited clone formation”, the Clone formation [2] was “inhibited clone formation” and the Clone formation ([3]; ONS-76, 1 µM) was “some clones were maintained”. For the same molecule, the Clone formation ([3]; ONS-76, 2.5 µM) was “disappeared completely”, the CXCL8-induced migration [4] was “blocked CXCL8-induced migration” and the CXCL8-induced migration [5] was “blocked CXCL8-induced migration”. For the same molecule, the “Effect on proliferation and survival” value [6] was “no effect”.
